According to patent US20250282723A1, “AMYLOID TARGETING AGENTS AND METHODS OF USING THE SAME” (The Regents of the University of California, priority 2021, published 2025):
“And” between values parts separate entries of the source, which are not always exact repeats. Identical values can stand only once.

Assays:
[1] = biological target: T1, aggregated Aβ (1-42) peptides (Homo sapiens, UniProt P05067); assay: Estimation of binding constant (KD) to aggregated Aβ (1-42) peptides; details: aggregated Aβ(1-42) 5 μM, increasing concentration of probe, 5% DMSO in nanopure water
T1 construct: Synthetic Aβ (1-42) peptide was purchased from Biopeptide, Co LLC; purchased Biopeptide, Co LLC (San Diego, California); host or cells: chemical synthesis
Procedure: (§1) Preparation of aggregated Aβ (1-42) peptides. Synthetic Aβ (1-42) peptide was purchased from Biopeptide, Co LLC (San Diego, California). Aggregated Aβ (1-42) was prepared as previously described.^26 Briefly, Aβ (1-42) was dissolved in 100% 1,1,1,3,3,3,-hexafluoro-2-propanol (HFIP) to a concentration of 1 mM and put on a shaker at room temperature (RT) for 24 hours. The solution was then diluted in cold nanopure water (2:1 H2O: HFIP). Aliquoted fractions were lyophilized for 3 days before dissolving in nanopure water to a concentration of 100 μM. Aggregated Aβ solutions were incubated and shaken at 37° C. for 3 days before use. The formation of soluble aggregates (67% fibrils as a mixture with 13% oligomers and 20% monomer) was confirmed using a standard thioflavin T (ThT) assay and by Sodium Dodecyl Sulphate-Polyacrylamide Gel Electrophoresis (SDS-PAGE) gel analysis (FIG. 11 and FIG. 12).
Estimation of Binding Constant (KD) to aggregated Aβ (1-42) peptides. Aggregated Aβ(1-42) at a final concentration of 5 μM (based on the molecular weight of monomer) was mixed with increasing concentration of each probe in 5% DMSO in nanopure water. KD's were determined as previously described.^21
(§2) Synthetic Aβ (1-42) peptide was purchased from Biopeptide, Co LLC (San Diego, California). Aggregated Aβ (1-42) was prepared as previously described.^32 Briefly, monomeric Aβ (1-42) was dissolved in 100% 1,1,1,3,3,3,-hexafluoro-2-propanol (HFIP) to a final concentration of 1 mM and dissolved on a shaker at RT for 24 hours. This solution was then diluted with cold nanopure water (2:1 H2O:HFIP) and aliquoted into fractions. These samples were then lyophilized for 3 days before dissolving in nanopure water to a final concentration of 100 μM. AD solutions were aggregated by incubating and shaking at 37° C. for 3 days before use. The formation of soluble aggregates was confirmed using a standard Thioflavin T (ThT) assay and by SDS-PAGE gel analysis.^1
Aggregated Aβ(1-42) or αS at a final concentration of 5 μM (based on the molecular weight of the monomer) was mixed with an increasing concentration of each probe in 5% DMSO in nanopure water. Kd's were calculated as previously described.^34 The measurements for each probe were repeated in technical triplicates and the averages are shown with standard deviations. Kd's for probes 1-3 with aggregated Aβ(1-42) have been reported previously.^31

[2] = Fluorescence excitation and emission spectra of free (unbound) probes in aqueous solution; type: physicochemical; details: for Em (λmax) (Free) / Ex (λmax) (Free): free probe in aqueous solution; for Emmax (Free): probes of FIG. 14, free; for fluorescence intensity of the free probe in aqueous solution compared to ARCAM (1): free probes in aqueous solution, FIG. 2
Procedure: (§3) Estimation of fluorescence enhancement of probes when bound versus unbound to aggregated Aβ (1-42) peptides. Aggregated Aβ (1-42) at a final concentration of 5 μM (based on the molecular weight of monomer) was mixed with each fluorescent probe at a final concentration of 4 μM in 5% DMSO in nanopure water. The solution (80 μL) was transferred to a black opaque 96 well plate and the fluorescence was read using a microplate reader. For all probes, the relative fluorescence enhancement of the bound versus unbound state was estimated by comparing the intensity at λmax of the amyloid-bound state.
(§4) Aggregated αS or Aβ(1-42) at a final concentration of 5 μM (based on the molecular weight of monomer) was mixed with each fluorescent probe at a final concentration of 4 μM in 5% DMSO in nanopure water. The solution (80 μL total volume) was transferred to a black opaque 96 well plate and the fluorescence excitation and emission were read using a microplate reader. For emission fluorescence enhancement, the relative fluorescence enhancement of the bound versus unbound state was estimated by comparing the fluorescence intensity at λmax of the amyloid-bound state.

[3] = biological target: T1, aggregated Aβ (1-42) peptides; assay: Fluorescence excitation/emission and fluorescence enhancement of probes bound versus unbound to aggregated Aβ (1-42) peptides; type: binding; details: probe 4 μM; for Em (λmax) (with Aβ) / Ex (λmax) (with Aβ): aggregated Aβ (1-42) 5 μM; for Em (λmax) (with Aβ) / Ex (λmax) (with Aβ) / Fold Increase with Aβ / Emmax (with Aβ): 5% DMSO in nanopure water; for Fold Increase with Aβ: fluorescence intensity with aggregated Aβ (1-42) 5 μM vs probe alone, at λmax of the amyloid-bound state; for Emmax (with Aβ) / FI with Aβ: probes of FIG. 14, aggregated Aβ(1-42) 5 μM; for FI with Aβ: fold increase of fluorescence, bound vs unbound
Procedure: as §1, §3, §2, §4

T1 sequence (P05067 672-713): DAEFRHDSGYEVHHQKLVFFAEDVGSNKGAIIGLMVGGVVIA

Row | SMILES | Kd [1] [µM] | Em (λmax) (Free) [2] [nm] | Ex (λmax) (Free) [2] [nm] | Emmax (Free) [2] [nm] | Em (λmax) (with Aβ) [3] [nm] | Ex (λmax) (with Aβ) [3] [nm] | Fold Increase with Aβ [3] | Fold Increase with Aβ ([3]; listed as ARCAM (1)) [fold] | Emmax (with Aβ) [3] [nm] | FI with Aβ [3] | fluorescence intensity of the free probe in aqueous solution compared to ARCAM (1) [2]
1 | COCCOCCOCCNC(=O)C(C#N)=Cc1ccc2cc(N3CCCCC3)ccc2c1 (mixture of isomers) [Compound 1] | 6.3 ± 0.7 | 590 ± 4 | 409 ± 11 | 590 | 560 ± 10 | 421 ± 4 | 2.1 ± 0.7 fold | 2.1 | 560 | 2.1 ± 0.7 | –
2 | COCCOCCOCCNC(=O)/C(C#N)=C/c1ccc2cc(N3CCCCC3C)ccc2c1 (racemic) [Compound 4, (E)-2-cyano-N-(2-(2-(2-methoxyethoxy)ethoxy)ethyl)-3-(6-(2-methylpiperidin-1-yl)naphthalen-2-yl)acrylamide] | 4.4 ± 2.3 | 583 ± 1 | 431 ± 4 | 583 | 559 ± 8 | 439 ± 3 | 1.9 fold and 1.9 ± 0.5 fold | – | 559 | 1.9 ± 0.5 | lower but similar in magnitude to ARCAM (1)
3 | CCC1CCCCN1c1ccc2cc(/C=C(\C#N)C(=O)NCCOCCOCCOC)ccc2c1 (racemic) [Compound 5, (E)-2-cyano-3-(6-(2-ethylpiperidin-1-yl)naphthalen-2-yl)-N-(2-(2-(2-methoxyethoxy)ethoxy)ethyl)acrylamide] | 3.2 ± 0.6 | 575 ± 6 | 445 ± 1 | 575 | 567 ± 5 | 443 ± 5 | 1.2 fold and 1.2 ± 0.1 fold | – | 567 | 1.2 ± 0.1 | lower but similar in magnitude to ARCAM (1)
